Measurements from US7879822B2, “Stabilized sulforaphane” (Pharmagra Labs, Inc., priority 2007, dated 2011).

Key:
[1] = Stability analysis of sulforaphane-cyclodextrin formulations by HPLC (Example 1); assay type: physicochemical; conditions: stored in a freezer
Method: Analysis Overview: The sulforaphane formulations were analyzed via HPLC (UV detection at 254 nm) using an internal standard (DEET) method. An assumption is made that the sulforaphane completely disassociates from the cyclodextrin under the chromatographic conditions. A sulforaphane standard (stored in a freezer) is used to determine the response factor for each analysis.
Storage Conditions: The samples were stored under three conditions: Capped and at room temperature, capped and stored in the freezer (−30° C.), and open and stored in a 40° C. oven. These samples were analyzed for sulforaphane load over time. The stabilization of the different samples and different storage conditions may be seen in FIGS. 3-5.
Sample Preparation Example: A 20 mg to 50 mg (carefully weighed) formulation sample is dissolved in 1 mL of internal standard solution (DEET in DMF). The amount of ISTD solution is also carefully weighed. The sample is further diluted with 1 mL of nitrogen sparged deionized water. The samples are sonicated for approximately ten minutes and filtered through ha 0.45 μm nylon filter. The samples are then analyzed by HPLC UV detection at 254 nm.
Analysis Results: The results are presented as percent of theoretical load versus time (The calculation for theoretical was described above.)

[2] = Extended stability study of stabilized sulforaphane compositions by HPLC (Example 2); assay type: physicochemical; conditions: stored in a freezer
Method: The sulforaphane formulations were analyzed via HPLC (UV detection at 254 nm) using an internal standard (DEET) method. A sulforaphane standard (stored in a freezer) was used to determine the response factor for each analysis.
A ca. 300 mg (carefully weighed) formulation sample was dissolved in 8 mL of internal standard solution (DEET in DMF, ca 2 mg/mL). The amount of ISTD solution was also carefully weighed. The sample was further diluted with 8 mL of nitrogen sparged DI water. The samples were sonicated for ˜10 minutes and filtered through a 0.45 μm nylon filter. The samples were then analyzed by HPLC UV detection at 254 nm.
Chromatographic Conditions: • Column: Agilent Eclipse XDB-C18, 5 μm, 250×4.6 mm, […] @ 30° C. • Solvent A: 0.1% Formic acid in H2O • Solvent B: MeCN • Gradient: 5% to 100% Solvent B in Solvent A over 30 minutes • Flow: 1.5 mL/minute • Detector: UV 254 nm, ESI-MS (pos/neg) for confirmation • Retention Times: Sulforaphane: 9.2 minutes DEET: 15.5 minutes
Analysis Results: The results are presented as percent of the “time zero” load versus time.

C[S+]([O-])CCCCN=C=S (racemic) [sulforaphane]
stability of the standard (HPLC response factor over all analyses) [1]: stable | stability of the standard (HPLC response factor over all analyses) [2]: stable
